Assay results from patent US20260198493A1, “HYDRAZIDE COMPOUND AND AGRICULTURAL/HORTICULTURAL FUNGICIDE” (Nippon Soda Co., Ltd., priority 2022, published 2026).

Experiments:
Glomerella cingulata = assay: Fungicidal effect test against fungi causing grape ripe rot disease; conditions: Colletotrichum gloeosporioides, 72 h, read-out: growth inhibition ratio
Botrytis cinerea [1] = assay: Control test of cucumber gray mold (sprayed young cucumber seedlings); type: in vivo; conditions: 96 h, four days after inoculation; for pest or weed control at 125 ppm: 125 ppm by mass spray; for pest or weed control at 25 ppm: 25 ppm by mass spray
Method: Then, the drug liquid was sprayed onto young cucumber seedlings cultivated in a nursery pot (variety “Jihai”-based, cotyledon stage), and then air-dried. […] They were left still in a moist room at 20° C. Four days after inoculation, leaves of the young cucumber seedlings were visually observed, and the control value was calculated from the lesion area ratio in accordance with the following equation. [formula]

Botrytis cinerea [2] = type: cell-based; conditions: 120 h, 25 ppm by volume, Vogel medium, 20° C., five days, dark, read-out: growth inhibition ratio
Colletotrichum acutatum = assay: Fungicidal effect test against fungi causing apple anthracnose; conditions: 96 h, read-out: growth inhibition ratio
[3] = tested on: Erysiphe graminis f.sp.tritici; assay: Control test of wheat powdery mildew disease (sprayed young wheat seedlings); type: in vivo; conditions: Blumeria graminis, 144 h, 125 ppm by mass spray, six days after inoculation
Description: [formula] […] Then, the drug liquid was sprayed onto young wheat seedlings cultivated in a nursery pot (variety “Chihoku”, one-to two-leaf stage), and then air-dried. Thereafter, conidiospores of fungi causing wheat powdery mildew disease (Erysiphe graminis f.sp.tritici) were sprinkled on the young wheat seedlings to inoculate them (treated area). As a control, the conidiospores of fungi causing wheat powdery mildew disease (Erysiphe graminis f.sp.tritici) were sprinkled on young wheat seedlings unsprayed with the drug liquid (untreated area). They were left still in a greenhouse at 20° C. Six days after inoculation, leaves of young wheat seedlings were visually observed, and the lesion area ratio was determined to calculate the control value in a similar manner to the previous test.

Venturia inaequalis = assay: Control test of apple scab disease (sprayed young apple seedlings); type: in vivo; conditions: 125 ppm by mass spray, 12 to 14 days after inoculation
Method: [formula] […] Then, the drug liquid was sprayed onto young apple seedlings cultivated in a nursery pot (variety “Orin”, three-to four-leaf stage), and then air-dried. Thereafter, conidiospores of fungi causing apple scab disease (Venturia inaequalis) were inoculated thereon (treated area). As a control, the conidiospores were inoculated in a similar manner to the above on young apple seedlings unsprayed with the drug liquid (untreated area). They were left still at 20° C. in a moist room with light and dark cycles repeated every 12 hours. 12 Days to 14 days after inoculation, leaves of young apple seedlings were visually observed, and the control value was calculated from the lesion area ratio in accordance with the equation used in the control test of cucumber gray mold.

CC(=O)N(Cc1ccc(C)cc1C)NC(=O)c1c(Oc2cccc(C3CC3)c2F)nnc(Cl)c1C [b-10]
≥ 75%: inhibition of growth at 25 ppm (Glomerella cingulata) | pest or weed control at 125 ppm (Botrytis cinerea [1]) | inhibition of growth at 25 ppm (Botrytis cinerea [2]) | inhibition of growth at 25 ppm (Colletotrichum acutatum)

CC(=O)N(Cc1ccc(Cl)cc1Cl)NC(=O)c1cc(C)nnc1Oc1cccc(C2CC2)c1F [b-13]
≥ 75%: inhibition of growth at 25 ppm (Glomerella cingulata) | pest or weed control at 125 ppm (Botrytis cinerea [1]) | pest or weed control at 125 ppm [3] | inhibition of growth at 25 ppm (Botrytis cinerea [2]) | inhibition of growth at 25 ppm (Colletotrichum acutatum)

COC(=O)N(Cc1ccc(C)cc1C)NC(=O)c1cc(C)nnc1Oc1cccc(Cl)c1Br [b-35]
≥ 75%: inhibition of growth at 25 ppm (Botrytis cinerea [2]) | pest or weed control at 125 ppm (Venturia inaequalis)

Cc1ccc(CN(NC(=O)c2cc(C)nnc2Oc2cccc(C3CC3)c2F)C(=O)C2COC2)c(C)c1 [b-40]
≥ 75%: inhibition of growth at 25 ppm (Glomerella cingulata) | pest or weed control at 125 ppm [3] | inhibition of growth at 25 ppm (Botrytis cinerea [2]) | inhibition of growth at 25 ppm (Colletotrichum acutatum)

CCc1cccc(Oc2nnc(C)cc2C(=O)NN(Cc2ccc(C)cc2C)C(=O)OC)c1 [b-50]
≥ 75%: inhibition of growth at 25 ppm (Glomerella cingulata) | pest or weed control at 125 ppm (Botrytis cinerea [1]) | pest or weed control at 125 ppm [3] | inhibition of growth at 25 ppm (Botrytis cinerea [2]) | inhibition of growth at 25 ppm (Colletotrichum acutatum)

CCc1ccc(Oc2nnc(C)cc2C(=O)NN(Cc2ccc(C)cc2C)C(=O)OC)cc1 [b-51]
≥ 75%: inhibition of growth at 25 ppm (Glomerella cingulata) | pest or weed control at 125 ppm [3] | inhibition of growth at 25 ppm (Botrytis cinerea [2]) | inhibition of growth at 25 ppm (Colletotrichum acutatum)

CC(=O)C(=O)N(Cc1ccc(C)cc1C)NC(=O)c1cc(C)nnc1Oc1cccc(C2CC2)c1F [b-58, 3-(3-Cyclopropyl-2-fluorophenoxy)-N′-(2,4-dimethylbenzyl)-6-methyl-N′-(2-oxopropanoyl)pyridazine-4-carbohydrazide]
≥ 75%: inhibition of growth at 25 ppm (Glomerella cingulata) | pest or weed control at 125 ppm (Botrytis cinerea [1]) | pest or weed control at 125 ppm [3] | inhibition of growth at 25 ppm (Botrytis cinerea [2]) | inhibition of growth at 25 ppm (Colletotrichum acutatum)

COC(=O)N(Cc1ccc(C)cc1C)NC(=S)c1cc(C)nnc1Oc1cccc(C2CC2)c1F [b-59, Methyl 2-(3-(3-cyclopropyl-2-fluorophenoxy)-6-methylpyridazine-4-carbonothioyl)-1-(2,4-dimethylbenzyl)hydrazine-1-carboxylate]
≥ 75%: inhibition of growth at 25 ppm (Glomerella cingulata) | pest or weed control at 125 ppm (Botrytis cinerea [1]) | inhibition of growth at 25 ppm (Botrytis cinerea [2]) | inhibition of growth at 25 ppm (Colletotrichum acutatum)

COC(=O)N(Cc1ccc(C)nc1C)NC(=O)c1cc(C)nnc1Oc1cccc(C2CC2)c1F [b-60]
≥ 75%: inhibition of growth at 25 ppm (Glomerella cingulata) | pest or weed control at 125 ppm [3] | inhibition of growth at 25 ppm (Colletotrichum acutatum)

COC(=O)N(Cc1ccc(C)cc1C)NC(=O)c1cc(C)nnc1Oc1ccc(C)c(Br)c1 [b-62]
≥ 75%: inhibition of growth at 25 ppm (Glomerella cingulata) | pest or weed control at 125 ppm [3] | inhibition of growth at 25 ppm (Botrytis cinerea [2]) | inhibition of growth at 25 ppm (Colletotrichum acutatum)

CC(=O)N(Cc1ccc(C)cc1C)NC(=O)c1nc(C)ncc1Oc1cccc(C2CC2)c1F [b-64]
≥ 75%: inhibition of growth at 25 ppm (Glomerella cingulata) | pest or weed control at 125 ppm (Botrytis cinerea [1]) | inhibition of growth at 25 ppm (Botrytis cinerea [2]) | inhibition of growth at 25 ppm (Colletotrichum acutatum)

COC(=O)N(Cc1ccc(C)cc1C)NC(=O)c1cc(C)nnc1Oc1cccc(C#N)c1F [b-69]
≥ 75%: inhibition of growth at 25 ppm (Glomerella cingulata) | pest or weed control at 125 ppm [3] | inhibition of growth at 25 ppm (Botrytis cinerea [2]) | inhibition of growth at 25 ppm (Colletotrichum acutatum)

COC(=O)N(NC(=O)c1cc(C)nnc1Oc1cccc(C2CC2)c1F)C(C)c1ccc(C)cc1C (stereo not drawn) [b-72]
≥ 75%: inhibition of growth at 25 ppm (Glomerella cingulata) | pest or weed control at 25 ppm (Botrytis cinerea [1]) | inhibition of growth at 25 ppm (Botrytis cinerea [2]) | inhibition of growth at 25 ppm (Colletotrichum acutatum)

COC(=O)N(Cc1ccc(Cl)nc1Cl)NC(=O)c1cc(C)nnc1Oc1cccc(C2CC2)c1F [b-93, Methyl 2-(3-(3-cyclopropyl-2-fluorophenoxy)-6-methylpyridazine-4-carbonyl)-1-((2,6-dichloropyridin-3-yl)methyl)hydrazine-1-carboxylate]
≥ 75%: inhibition of growth at 25 ppm (Glomerella cingulata) | pest or weed control at 125 ppm [3] | inhibition of growth at 25 ppm (Botrytis cinerea [2]) | inhibition of growth at 25 ppm (Colletotrichum acutatum)

COC(=O)N(Cc1ccc(OC)cc1C)NC(=O)c1nc(C)ncc1Oc1cccc(C2CC2)c1F [b-105]
≥ 75%: inhibition of growth at 25 ppm (Glomerella cingulata) | pest or weed control at 25 ppm (Botrytis cinerea [1]) | inhibition of growth at 25 ppm (Botrytis cinerea [2]) | inhibition of growth at 25 ppm (Colletotrichum acutatum)

COC(=O)N(Cc1ccc(C)cc1C)NC(=O)c1nc(C)nnc1Oc1cccc(C2CC2)c1F [b-115]
≥ 75%: inhibition of growth at 25 ppm (Glomerella cingulata) | pest or weed control at 25 ppm (Botrytis cinerea [1]) | inhibition of growth at 25 ppm (Botrytis cinerea [2]) | inhibition of growth at 25 ppm (Colletotrichum acutatum)

COC(=O)N(Cc1sc(C)cc1C)NC(=O)c1cc(C)nnc1Oc1cccc(C2CC2)c1F [b-122, Methyl 2-(3-(3-cyclopropyl-2-fluorophenoxy)-6-methylpyridazine-4-carbonyl)-1-((3,5-dimethylthiophen-2-yl)methyl)hydrazine-1-carboxylate]
≥ 75%: inhibition of growth at 25 ppm (Glomerella cingulata) | pest or weed control at 125 ppm (Botrytis cinerea [1]) | inhibition of growth at 25 ppm (Botrytis cinerea [2]) | inhibition of growth at 25 ppm (Colletotrichum acutatum)

COC(=O)N(Cc1ccc(C)cc1C)NC(=O)c1cc(N(C)C)ncc1Oc1cccc(C2CC2)c1F [b-125]
≥ 75%: inhibition of growth at 25 ppm (Glomerella cingulata) | pest or weed control at 125 ppm [3] | inhibition of growth at 25 ppm (Botrytis cinerea [2]) | inhibition of growth at 25 ppm (Colletotrichum acutatum)

COC(=O)N(Cc1ccc(OC)cc1C)NC(=O)c1nc(C)nnc1Oc1cccc(C2CC2)c1F [b-130]
≥ 75%: inhibition of growth at 25 ppm (Glomerella cingulata) | pest or weed control at 25 ppm (Botrytis cinerea [1]) | pest or weed control at 125 ppm (Botrytis cinerea [1]) | inhibition of growth at 25 ppm (Botrytis cinerea [2]) | inhibition of growth at 25 ppm (Colletotrichum acutatum)

COC(=O)N(Cc1ccc([N+](=O)[O-])cc1C)NC(=O)c1cc(C)nnc1Oc1cccc(C2CC2)c1F [b-162]
≥ 75%: inhibition of growth at 25 ppm (Glomerella cingulata) | pest or weed control at 125 ppm [3] | inhibition of growth at 25 ppm (Botrytis cinerea [2]) | inhibition of growth at 25 ppm (Colletotrichum acutatum)

CSC(=O)N(Cc1ccc(C)cc1C)NC(=O)c1cc(C)nnc1Oc1cccc(C2CC2)c1F [b-166, S-methyl 2-(3-(3-cyclopropyl-2-fluorophenoxy)-6-methylpyridazine-4-carbonyl)-1-(2,4-dimethylbenzyl)hydrazine-1-carbothioate]
≥ 75%: inhibition of growth at 25 ppm (Glomerella cingulata) | inhibition of growth at 25 ppm (Botrytis cinerea [2]) | inhibition of growth at 25 ppm (Colletotrichum acutatum)

COC(=O)N(Cc1ccc2ncsc2c1)NC(=O)c1cc(C)nnc1Oc1cccc(C2CC2)c1F [b-173]
≥ 75%: inhibition of growth at 25 ppm (Glomerella cingulata) | pest or weed control at 125 ppm (Venturia inaequalis) | inhibition of growth at 25 ppm (Colletotrichum acutatum)

CSC(=S)N(Cc1ccc(C)cc1C)NC(=O)c1cc(C)nnc1Oc1cccc(C2CC2)c1F [b-174]
≥ 75%: inhibition of growth at 25 ppm (Glomerella cingulata) | pest or weed control at 125 ppm (Venturia inaequalis) | inhibition of growth at 25 ppm (Colletotrichum acutatum)

COC(=O)N(NC(=O)c1cc(C)nnc1Oc1cccc(C2CC2)c1F)C1(c2ccc(Br)cc2)CC1 [b-179]
≥ 75%: inhibition of growth at 25 ppm (Glomerella cingulata) | inhibition of growth at 25 ppm (Botrytis cinerea [2]) | inhibition of growth at 25 ppm (Colletotrichum acutatum)

COC(=O)N(Cc1ccc(C)cc1C)NC(=O)c1cc(-c2ccc(F)cc2)ncc1Oc1cccc(C2CC2)c1F [b-185]
≥ 75%: inhibition of growth at 25 ppm (Glomerella cingulata) | inhibition of growth at 25 ppm (Botrytis cinerea [2]) | inhibition of growth at 25 ppm (Colletotrichum acutatum)

COC(=O)N(Cc1ccc(C)cc1C)NC(=O)c1cc(S(C)(=O)=O)ncc1Oc1cccc(C2CC2)c1F [b-193]
≥ 75%: inhibition of growth at 25 ppm (Glomerella cingulata) | inhibition of growth at 25 ppm (Botrytis cinerea [2]) | inhibition of growth at 25 ppm (Colletotrichum acutatum)

COC(=O)N(Cc1ccc(C)cc1C)N(C)C(=O)c1cc(C)nnc1Oc1cccc(C2CC2)c1F [b-195]
≥ 75%: inhibition of growth at 25 ppm (Glomerella cingulata) | inhibition of growth at 25 ppm (Botrytis cinerea [2]) | inhibition of growth at 25 ppm (Colletotrichum acutatum)

Cc1ccc(CN(NC(=O)c2cc(C)nnc2Oc2cccc(C3CC3)c2F)C(=O)OCC(F)F)c(C)c1 [b-197]
≥ 75%: inhibition of growth at 25 ppm (Glomerella cingulata) | pest or weed control at 25 ppm (Botrytis cinerea [1]) | pest or weed control at 125 ppm (Botrytis cinerea [1]) | inhibition of growth at 25 ppm (Botrytis cinerea [2]) | inhibition of growth at 25 ppm (Colletotrichum acutatum)

COC(=O)N(Cc1ccc(C)cc1C)NC(=O)c1c(Oc2cccc(C3CC3)c2F)cncc1C(C)=O [b-221]
≥ 75%: inhibition of growth at 25 ppm (Glomerella cingulata) | inhibition of growth at 25 ppm (Botrytis cinerea [2]) | inhibition of growth at 25 ppm (Colletotrichum acutatum)

COC(=O)N(Cc1ccc(C)cc1C)NC(=O)c1c(Oc2cccc(C3CC3)c2)cnn(C(C)C)c1=O [b-224]
≥ 75%: inhibition of growth at 25 ppm (Glomerella cingulata) | pest or weed control at 125 ppm (Botrytis cinerea [1]) | inhibition of growth at 25 ppm (Botrytis cinerea [2]) | inhibition of growth at 25 ppm (Colletotrichum acutatum)

COC(=O)N(Cc1ccc(OC)cc1C)NC(=O)c1c(Oc2cccc(C3CC3)c2)cnn(C(C)C)c1=O [b-225]
≥ 75%: inhibition of growth at 25 ppm (Glomerella cingulata) | inhibition of growth at 25 ppm (Botrytis cinerea [2]) | inhibition of growth at 25 ppm (Colletotrichum acutatum)
